Measurements: the supplement of paper PMC10307832

Tests used:
Assay in all cases: relative viability (nuclei count vs DMSO), 5 days (fraction); higher = more cells survive
[1] = compound: Oc1nc(-c2ccc(C(F)(F)F)cc2)nc2c1CSCC2 [XAV939]
Summary of the method: (§1)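 Viability here means nuclei in treated wells divided by nuclei in vehicle wells, reported as the median across plates. Only plates with control CV below 25% and at least one doubling passed. Lung cancer cell lines in 1536-well plates were exposed to five √10-spaced library-drug doses for 5 days and counted from 4× Hoechst images in MetaXpress.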

[2] = compound: CCCCCCCC[C@H]1[C@@H](C(=C)C(=O)O1)C(=O)O [C-75]
Summary of the method: as §1

[3] = compound: CC1(C)CCC(c2ccc(Cl)cc2)=C(CN2CCN(c3ccc(C(=O)NS(=O)(=O)c4ccc(N[C@H](CCN5CCOCC5)CSc5ccccc5)c(S(=O)(=O)C(F)(F)F)c4)cc3)CC2)C1 [Navitoclax]
Summary of the method: as §1

[4] = compound: NC(=O)Nc1cc(-c2cccc(F)c2)sc1C(=O)N[C@H]1CCCNC1 [AZD7762]
Summary of the method: as §1

[5] = compound: O=C(O)c1ccc(-c2c[nH]c3ncc(-c4ccccc4)cc23)cc1C1CCCC1
Summary of the method: as §1

Row | Cell Line | relative viability ([1]; 0.08 µM) | relative viability ([1]; 0.253 µM) | relative viability ([1]; 0.8 µM) | relative viability ([1]; 2.53 µM) | relative viability ([2]; 0.08 µM) | relative viability ([2]; 0.253 µM) | relative viability ([2]; 0.8 µM) | relative viability ([2]; 2.53 µM) | relative viability ([2]; 8 µM) | relative viability ([3]; 0.005 µM) | relative viability ([3]; 0.01581 µM) | relative viability ([3]; 0.05 µM) | relative viability ([3]; 0.1581 µM) | relative viability ([3]; 0.5 µM) | relative viability ([3]; 0.5 µM, anchor plate) | relative viability ([4]; 0.01 µM) | relative viability ([4]; 0.03162 µM) | relative viability ([4]; 0.1 µM) | relative viability ([4]; 0.2 µM, anchor plate) | relative viability ([4]; 0.3162 µM) | relative viability ([4]; 1 µM) | relative viability ([5]; 0.04 µM) | relative viability ([5]; 0.1265 µM) | relative viability ([5]; 0.4 µM) | relative viability ([5]; 1.265 µM)
1 | LOU-NH91 | 0.979 | 0.868 | 0.954 | 0.953 | 0.959 | 0.977 | 0.862 | 0.778 | 0.969 | 1.01 | 1 | 0.921 | 0.865 | 0.513 | 0.718 | 0.941 | 1.1 | 0.975 | 0.784 | 0.894 | 0.775 | 0.934 | 1.14 | 0.975 | 0.915
2 | CAL-12T | 1 | 0.884 | 0.877 | 0.814 | 1.06 | 1.15 | 0.859 | 0.922 | 1.08 | 0.935 | 1.05 | 1.01 | 0.985 | 1.01 | 1.14 | 0.993 | 0.982 | 1.06 | 0.646 | 0.724 | 0.241 | 1.08 | 1.17 | 0.914 | 0.734
3 | Calu-6 | 1.07 | 0.904 | 0.985 | 0.944 | 1.03 | 1.02 | 0.964 | 0.912 | 0.948 | 0.979 | 1.01 | 1.1 | 0.933 | 0.93 | 0.824 | 1.05 | 0.992 | 0.873 | – | 0.475 | 0.145 | 0.982 | 1.01 | 0.955 | 0.78
4 | NCI-H647 | 1.02 | 0.845 | 0.918 | 0.866 | 0.919 | 0.996 | 0.74 | 0.915 | 0.78 | 0.859 | 1.04 | 1.13 | 0.871 | 0.881 | 1.12 | 1.04 | 1.14 | 0.923 | 0.505 | 0.616 | 0.194 | 0.975 | 1.03 | 0.908 | 0.709
5 | H3255 | 1.06 | 0.892 | 0.814 | 0.895 | 0.963 | 0.973 | 0.945 | 0.901 | 0.995 | 0.979 | 1.17 | 0.87 | 0.92 | 0.786 | 0.529 | 1.05 | 1.04 | 1.04 | 0.971 | 0.958 | 0.856 | 0.954 | 1.04 | 0.97 | 0.944
6 | HCC-78 | 0.923 | 0.8 | 0.919 | 0.667 | 0.948 | 0.882 | 0.817 | 0.761 | 0.95 | 1.03 | 1.11 | 0.729 | 0.958 | 1.02 | 0.737 | 1.02 | 1.14 | 0.978 | 0.706 | 0.95 | 0.552 | 0.929 | 1.24 | 1.1 | 0.864
7 | NCI-H596 | 1.1 | 1.02 | 1.11 | 1.03 | 1.01 | 1.14 | 0.909 | 0.852 | 0.997 | 1.07 | 0.942 | 0.711 | 0.964 | 1.04 | 0.936 | 1.07 | 1.08 | 1.08 | 1.1 | 0.929 | 0.891 | 0.927 | 0.982 | 1.02 | 0.971
8 | PC-3 [JPC-3] | 1.02 | 0.924 | 1.02 | 0.947 | 0.961 | 0.97 | 0.994 | 0.995 | 1.16 | 1.03 | 1.07 | 1.08 | 1.01 | 1.02 | 0.816 | 1.03 | 1.06 | 1.1 | 0.897 | 1.05 | 0.931 | 1.07 | 1.09 | 1 | 0.945
9 | NCI-H650 | 1.03 | 1.08 | 0.99 | 0.824 | 0.916 | 0.875 | 0.862 | 0.87 | 0.817 | 0.908 | 0.97 | 0.956 | 0.853 | 1.04 | – | 1.08 | 1.05 | 0.905 | 1.03 | 0.954 | 0.914 | 0.908 | 1.03 | 0.77 | 0.67
10 | HARA | 1.04 | 0.904 | 0.825 | 0.764 | 0.989 | 0.963 | 0.858 | 0.788 | 1.03 | 0.84 | 1.26 | 0.811 | 0.911 | 1.01 | 1.13 | 0.986 | 0.946 | 0.999 | 0.367 | 0.88 | 0.368 | 0.955 | 1.23 | 0.846 | 1.02
11 | NCI-H2009 | 1.12 | 0.996 | 0.924 | 0.899 | 0.999 | 0.991 | 0.911 | 0.81 | 0.905 | 0.964 | 1.14 | 1.02 | 1.04 | 1.04 | 1.16 | 1.07 | 0.994 | 1.1 | – | 1 | 0.834 | 1.01 | 1.01 | 0.963 | 0.762
12 | NCI-H441 | 1.18 | 0.962 | 1.1 | 1.04 | 1.14 | 1.09 | 0.907 | 0.764 | 0.957 | 0.981 | 1.07 | 1.06 | 1.11 | 0.986 | 0.701 | 1.11 | 1.2 | 1.05 | 1.14 | 1.34 | 1.03 | 1.01 | 1.08 | 0.817 | 0.6
13 | PC-14 | 1.1 | 0.933 | 0.974 | 0.885 | 0.939 | 0.86 | 0.902 | 0.927 | 1 | 1 | 1.16 | 1.05 | 0.981 | 0.956 | 1.01 | 1.03 | 0.995 | 0.931 | 0.39 | 0.562 | 0.368 | 0.956 | 1.12 | 1 | 0.962
